Measured values: ChEMBL document CHEMBL1124752, “Cyclobut-A and cyclobut-G: broad-spectrum antiviral agents with potential utility for the therapy of AIDS” (J Med Chem, 1990)
In brackets after ≈: the same amount, converted by molar mass.

Experiments:
[1] = system: Human immunodeficiency virus 1; assay: Tested for the determination of percentage protection atuM against HIV-1 in ATH8 cells; format: functional, ATH-8
[2] = system: Human immunodeficiency virus 1; assay: Tested for the determination of percentage toxicity at 2 uM against HIV-1 in ATH8 cells; format: organism-based; conditions: human immunodeficiency virus 1, ath-8, 2 µM
[3] = system: Human immunodeficiency virus 1; assay: Tested for the determination of percentage toxicity at 500 uM against HIV-1 in ATH8 cells; format: organism-based; conditions: human immunodeficiency virus 1, ath-8, 500 µM
[4] = system: Human immunodeficiency virus 1; assay: Tested for the determination of percentage protection at 100 uM against HIV-1 in ATH8 cells; format: functional, ATH-8
[5] = system: Human immunodeficiency virus 1; assay: Tested for the determination of percentage protection at 10 uM against HIV-1 in ATH8; format: functional
[6] = system: Human immunodeficiency virus 1; assay: Tested for the determination of percentage protection atuM against HIV-1 in ATH8 Cells; format: functional
[7] = system: Human immunodeficiency virus 1; assay: Tested for the determination of percentage toxicity at 10 uM against HIV-1 in ATH8 cells; format: organism-based; conditions: human immunodeficiency virus 1, ath-8, 10 µM
[8] = system: Human immunodeficiency virus 1; assay: Tested for the determination of percentage toxicity at 100 uM against HIV-1 in ATH8 cells; format: organism-based; conditions: human immunodeficiency virus 1, ath-8, 100 µM
Murid betaherpesvirus 1 [9] = assay: Number of survivors per number of systemic MCMV infected mice treated with 11.2 mg/kg per day; 15/15; format: functional
Human betaherpesvirus 5 [10] = assay: In vitro antiviral activity tested against HCMV, LA strain by plaque reduction assay in human foreskin fibroblasts.; format: functional
Murid betaherpesvirus 1 [11] = assay: Number of survivors per number of systemic MCMV infected mice treated with 33.4 mg/kg per day; 15/15; format: functional
Human betaherpesvirus 5 [12] = assay: In vitro antiviral activity tested against HCMV, AD169 strain by plaque reduction assay in human foreskin fibroblasts.; format: functional
Murid betaherpesvirus 1 [13] = assay: Tested for the effective dose required to inhibit systemic MCMV in infected mice; format: functional
Human betaherpesvirus 5 [14] = assay: In vitro antiviral activity tested against HCMV, CH strain by plaque reduction assay in human foreskin fibroblasts.; format: functional
Murid betaherpesvirus 1 [15] = assay: Number of survivors per number of systemic MCMV infected mice treated with 3.8 mg/kg per day; 10/15; format: functional
Murid betaherpesvirus 1 [16] = assay: In vitro antiviral activity tested against MCMV Smith strain by plaque reduction assay in mouse embryo fibroblasts.; conditions: read-out: ED50 (the source's name)
Murid betaherpesvirus 1 [17] = assay: In vitro antiviral activity tested against MCMV Smith strain by plaque reduction assay in mouse embryo fibroblasts.; format: functional; conditions: read-out: ID50 (the source's name)
Human betaherpesvirus 5 [18] = assay: In vitro antiviral activity tested against HCMV, EC strain by plaque reduction assay in human foreskin fibroblasts.; format: functional
Murid betaherpesvirus 1 [19] = assay: Tested for mean day to death of nonsurvivors against systemic MCMV infection in mice at 1.9 mg/kg per day; format: functional
Human betaherpesvirus 5 [20] = assay: In vitro antiviral activity tested against HCMV, Davis strain by plaque reduction assay in human foreskin fibroblasts.; format: functional
[21] = system: Human immunodeficiency virus 1; assay: Tested for the determination of percentage toxicity at 200 uM concentrations against HIV-1 in ATH8 Cells; format: functional
[22] = system: Human immunodeficiency virus 1; assay: Tested for the determination of percentage protection at 2 uM concentrations against HIV-1 in ATH8 Cells; format: functional
[23] = system: Human immunodeficiency virus 1; assay: Tested for the determination of percentage protection at 200 uM concentrations against HIV-1 in ATH8 Cells; format: functional
[24] = system: Human immunodeficiency virus 1; assay: Tested for the determination of percentage toxicity at 10 uM concentrations against HIV-1 in ATH8 Cells; format: functional
[25] = system: Human immunodeficiency virus 1; assay: Tested for the determination of percentage protection at 10 uM concentrations against HIV-1 in ATH8 Cells; format: functional
[26] = system: Human immunodeficiency virus 1; assay: Tested for the determination of percentage toxicity at 100 uM concentrations against HIV-1 in ATH8 Cells; format: functional
[27] = system: Human immunodeficiency virus 1; assay: Tested for the determination of percentage protection at 100 uM concentrations against HIV-1 in ATH8 Cells; format: functional
[28] = read-out: ED50 (the source's name)
[29] = read-out: ID50 (the source's name)

## Nc1nc2c(ncn2[C@H]2CC[C@@H](CO)O2)c(=O)[nH]1
[1]
  Protection: 48%
[2]
  Cytotoxicity: 0%
[3]
  Cytotoxicity: 50%
[4]
  Protection: 99%
[5]
  Protection: 100%
[6]
  Protection: 54%
[7]
  Cytotoxicity: 0%
[8]
  Cytotoxicity: 4%

## Nc1nc2c(ncn2COC(CO)CO)c(=O)[nH]1 [GANCICLOVIR]
Murid betaherpesvirus 1 [9]
  Survivors / treated: 15
Human betaherpesvirus 5 [10]; [28]
  EC50: 2.4 µg/mL (≈ 9.4 µM)
Human betaherpesvirus 5 [10]; [29]
  IC50: > 100 µg/mL
Murid betaherpesvirus 1 [11]
  Survivors / treated: 15
Human betaherpesvirus 5 [12]; [28]
  EC50: 2.7 µg/mL (≈ 10.6 µM)
Human betaherpesvirus 5 [12]; [29]
  IC50: > 100 µg/mL
Murid betaherpesvirus 1 [13]
  ED50: < 1.9 mg/kg/day
Human betaherpesvirus 5 [14]; [28]
  EC50: 3.1 µg/mL (≈ 12.1 µM)
Human betaherpesvirus 5 [14]; [29]
  IC50: > 100 µg/mL
Murid betaherpesvirus 1 [15]
  Survivors / treated: 10
Murid betaherpesvirus 1 [16]
  EC50: 1 µg/mL (≈ 3.92 µM)
Murid betaherpesvirus 1 [17]
  IC50: > 100 µg/mL
Human betaherpesvirus 5 [18]; [28]
  EC50: 2.8 µg/mL (≈ 11 µM)
Human betaherpesvirus 5 [18]; [29]
  IC50: > 100 µg/mL
Murid betaherpesvirus 1 [19]
  MDD: 7.6
Human betaherpesvirus 5 [20]; [28]
  EC50: 3.6 µg/mL (≈ 14.1 µM)
Human betaherpesvirus 5 [20]; [29]
  IC50: > 100 µg/mL

## Nc1ncnc2c1ncn2[C@H]1CC[C@@H](CO)O1
[21]
  Cytotoxicity: 0%
[22]
  Protection: 69%
[23]
  Protection: 99%
[24]
  Cytotoxicity: 0%
[25]
  Protection: 99%
[26]
  Cytotoxicity: 8%
[27]
  Protection: 100%
